Results on six molecules are retold here after US20240366540A1, “MITOFUSIN INHIBITORS AND USES THEREOF” (Albert Einstein College of Medicine, priority 2021, published 2024).

For series [1], the system named is cells. Kind of series: Cell death assay (Annexin V / propidium iodide). The class given is cell-based. Here is the method:
Cell death assay. Cells (2×10^5 cells/well) were seeded in a 6-well plate and treated with the indicated drugs for 6 hours. Cells were dissociated using Accutase (Thermo Fisher; Cat. #00-4555-56) in order to avoid accidental exposure of phosphatidylserine on the outer plasma membrane. Cell death was evaluated with Dead Cell Apoptosis Kit with Annexin V Alexa Fluor™ 488 & Propidium Iodide (Thermo Fisher; Cat. #V13241) according to manufacturer's protocol. Data was acquired by BD LSRII flow cytometer system using BD FACSDiva software. Data was analyzed by FlowJo (BD).

Series [2] has as its system MEFs. Kind of series: Mitochondrial aspect ratio (Mito AR), live cell imaging. The note with it: for activity to promote mitochondrial fusion or fision: MASMs: fusion, MFIs: fission; for capacity to promote mitochondrial fragmentation in cells (activity of MFI8 analogue): compared with MFI8; for mitochondrial aspect ratio: MEFs, MitoTracker Green.
Method: Live cell imaging. MEFs were seeded on chamber slides (MatTek Corporation: 35 mm dishes, No. 1.5, 14 mm glass diameter) at ˜70% confluence. […] Images were taken with Leica SP5 inverted confocal microscope. Data were analyzed with Image J software. >200 mitochondria were measured per condition in mitochondrial aspect ratio.
Measurement of mitochondrial aspect ratio (Mito AR). Images that depict stained mitochondria with mitotracker green were analyzed using FIJI We measured for each mitochondrion its length and width. Then, we divided the length by the width for each mitochondrion to get its mitochondrial aspect ratio. >200 mitochondria were measured per treatment.
For series [3], the system named is MEFs. Kind of series: Caspase-3/7 activation assay. Format: cell-based, mouse. The note with it: 6 hr, Caspase-Glo 3/7. The method, then:
Caspase-3/7 activation assay. Cells (5×10^3 cells/well) were seeded in a 96-well white plate and treated with MASM7, MFI8. Caspase 3/7 activation was measured after 6 hr by addition of the Caspase-Glo 3/7 reagent according to the manufacturer's protocol (Promega). Luminescence was detected by a F200 PRO microplate reader (TECAN). Caspase assays were performed in at least triplicate and the data normalized to vehicle-treated control wells. Dilutions of MASM7 or MFI8 were performed using a TECAN D300e Digital Dispenser from 10 mM stocks.

The target of series [4] is T1, HR2 domain of MFN2 (residues 678-757) (Homo sapiens, UniProt O95140).
T1 sequence (O95140 678-757): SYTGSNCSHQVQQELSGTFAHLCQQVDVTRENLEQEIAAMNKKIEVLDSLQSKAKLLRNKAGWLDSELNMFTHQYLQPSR
Kind of series: Microscale thermophoresis (MST) binding. The following applies: His-tagged MFN2-HR2, 30° C. Background: In MST a laser heats a spot of the sample, and binding alters the fluorescence response.
Method: Microscale Thermopheresis. Freshly purified His-tagged MFN2-HR2 domain was used for Microscale Thermophoresis (MST) binding studies. For protein labelling, a fresh stock of 5 μM His-tag-RED-tris-NTA 2nd generation dye (Nanotemper) in 25 mM Hepes pH 7.5, 100 mM NaCl, 0.005% Tween-20 (assay buffer) was used to label 500 nM of MFN2-HR2 in the same buffer. The labeling reaction was incubated for 30 min at RT and centrifuged at 15.000×g at 4° C. for 10 min. Labelled protein from the supernatant was kept on ice and used immediately. Compounds were serially diluted in 100% DMSO. Immediately before mixing with labeled protein, the dilution series was transferred in assay buffer to reach 2% DMSO. 10 μl of each compound in the final series was mixed with 10 μl of labeled protein and samples were incubated for 5 min at 30° C. before MST measurement using a MonolithNT.115 instrument (Nanotemper). Peptides were diluted in assay buffer plus 2% DMSO and treated as above. […] Kd values were obtained from non-linear regression fits of normalized data to a three or four parameter logistic curve, using GraphPad Prism 9.

Series [5] deals with the molecule itself. Kind of series: blue native PAGE of digitonin lysates of isolated MEF mitochondria, anti-MFN2 blot.

Starred links: 1 amine or outer side, 2 acyl side, 3 side chain; linkers in the order of their positions; H or OH if unused. Positions of bridges follow the written chain, without caps; N, C: chain ends. Non-standard residues stand in square brackets, D forms with d. Residues, ends and D or L forms follow the SMILES beside them. Chains are numbered I, II in the order given. Hexamethylenediamine = C(CCCN[*:2])CCN[*:1]; Dip = N[C@H](C(=O)O)C(c1ccccc1)c1ccccc1; Chg = N[C@H](C(=O)O)C1CCCCC1; NMeA = CN[C@@H](C)C(=O)O

Turning to `CN[C@@H](C)C(=O)N[C@H](C(=O)N1CCC[C@H]1C(=O)N[C@H](C(=O)NCCCCCCNC(=O)[C@@H](NC(=O)[C@@H]1CCCN1C(=O)[C@@H](NC(=O)[C@H](C)NC)C1CCCCC1)C(c1ccccc1)c1ccccc1)C(c1ccccc1)c1ccccc1)C1CCCCC1` [BV6, reference compound] (I: H-[NMeA][Chg]P[Dip] / II: H-[NMeA][Chg]P[Dip]; linker I:C-II:C via Hexamethylenediamine), the “cell death upon BV6 treatment” value in series [1] (deletion of MFNs) is “sensitized cells to BV6 treatment”.
Turning to `Cc1cccc(NC(C)c2ccccc2O)c1C` (centres unmarked) [MFI22, 2-(1-((2,3-Dimethylphenyl)amino)ethyl)phenol], in series [2], the “activity to promote mitochondrial fusion or fision” value is given as “inability or weak activity” and the “capacity to promote mitochondrial fragmentation in cells (activity of MFI8 analogue)” value (shortened to “capacity … (activity of MFI8 analogue)”) was “significantly reduced the capacity of the compound to promote mitochondrial fragmentation”. For the same molecule, the caspase-3/7 activity result in series [3] is on record as “did not increase caspase-3/7 activity”. In series [4], the “direct binding to the HR2 domain of MFN2 (MST)” value (“direct binding to the HR2 domain” below) is “did not demonstrate measurable binding”. Besides, the “sensitization to BV6-induced cell death” value in series [1] (in combination with BV6) is recorded as “did not sensitize cells to BV6 treatment”.
With `Cc1cccc(NCc2cc(Cl)ccc2O)c1C` [MFI23, 4-Chloro-2-(((2,3-dimethylphenyl)amino)methyl)phenol], in series [2], the mitochondrial aspect ratio result is given as “decreasing” and the “capacity … (activity of MFI8 analogue)” value was “minimal effect on the activity”. Further, the “direct binding to the HR2 domain” value in series [4] is “demonstrated direct binding”.
As to `Cc1cccc(NCc2cc(Cl)ccc2O)c1` [MFI24, 4-Chloro-2-((m-tolylamino)methyl)phenol], the mitochondrial aspect ratio result in series [2] is “did not reduce mitochondrial aspect ratio”.
With `Cc1cccc(NC(C)c2cccc(Cl)c2)c1C` (centres unmarked) [MFI26, N-(1-(3-chlorophenyl)ethyl)-2,3-dimethylaniline], in series [2], the “activity to promote mitochondrial fusion or fision” value is “inability or weak activity” and the “capacity … (activity of MFI8 analogue)” value is reported as “detrimental for the activity”. For the same molecule, in series [4], the “direct binding to the HR2 domain” value was “did not demonstrate measurable binding”.

B1: MFN2 (endogenous, in mitochondria isolated from MEFs) (other, mouse (MEFs), UniProt Q80U63 1-757, looked up)
chain: MSLLFSRCNSIVTVKKDKRHMAEVNASPLKHFVTAKKKINGIFEQLGAYIQESASFLEDTHRNTELDPVTTEEQVLDVKGYLSKVRGISEVLARRHMKVAFFGRTSNGKSTVINAMLWDKVLPSGIGHTTNCFLRVGGTDGHEAFLLTEGSEEKKSVKTVNQLAHALHQDEQLHAGSMVSVMWPNSKCPLLKDDLVLMDSPGIDVTTELDSWIDKFCLDADVFVLVANSESTLMQTEKQFFHKVSERLSRPNIFILNNRWDASASEPEYMEEVRRQHMERCTSFLVDELGVVDRAQAGDRIFFVSAKEVLSARVQKAQGMPEGGGALAEGFQVRMFEFQNFERQFEECISQSAVKTKFEQHTVRAKQIAEAVRLIMDSLHIAAQEQRVYCLEMREERQDRLRFIDKQLELLAQDYKLRIKQITEEVERQVSTAMAEEIRRLSVLVDEYQMDFHPSPVVLKVYKNELHRHIEEGLGRNLSDRCSTAIASSLQTMQQDMIDGLKPLLPVSMRNQIDMLVPRQCFSLSYDLNCDKLCADFQEDIEFHFSLGWTMLVNRFLGPKNSRRALLGYSDQVQRPLPLTPANPSMPPLPQSSLTQEELMVSMVTGLASLTSRTSMGILVVGGVVWKAVGWRLIALSFGLYGLLYVYERLTWTTKAKERAFKRQFVEYASEKLQLIISYTGSNCSHQVQQELSGTFAHLCQQVDITRDNLEQEIAAMNKKVEALDSLQSRAKLLRNKAGWLDSELNMFTHQYLQPSR
notes: whole, on cells; The protein stood in isolated mitochondria, not on whole cells; It was solubilised with digitonin and resolved by blue native PAGE; also called mitofusin-2
Take B1: the binding result in series [5] is “binds”.
